Experimental findings from PubChem BioAssay AID2305 (GlaxoSmithKline (GSK), 2010) are described below.

Molecules are shown by their SMILES.

In the experiment the test system is P. falciparum 3D7 growth, pLDH absorbance. The experiment can be described thus: P. falciparum 3D7 growth inhibition, dose response, strain 3D7 (AID 2305).

The IC50 is the midpoint of a concentration-inhibition curve. Read a low IC50 as greater potency. Molecule `CC(C)N(Cc1cnc2nc(N)nc(N)c2n1)c1ccc(Cl)c(Cl)c1` had an IC50 of 160 nM.

The molecule `COc1cc(C=CC(=O)N2CCC(CN3CCC(c4c[nH]c5ccccc45)CC3)CC2)cc(OC)c1` had a concentration for half-maximal inhibition (IC50) of 800 nM. In the case of `CN1CCC(C(=O)Nc2ccc(-c3cccc(-c4nc5ccc(C(F)(F)F)cc5[nH]4)c3)cc2)CC1` it was 580 nM; in that of `O=C(Nc1ccc(-c2nc3ccccc3[nH]2)cc1)c1ccc(S(=O)(=O)N2CCCCC2)cc1`, 750 nM. As for `OC(CNc1ccnc(Nc2ccccc2)n1)c1cccc(C(F)(F)F)c1` (configuration not stated), the figure is 650 nM. As for `CCCNCc1ccc(-c2ccc(CN(C(=O)c3nn(-c4ccccc4)nc3C)C3CCOCC3)cc2)nc1`, the figure is 140 nM; as for `COc1cc2c(cc1NC(=O)CN1CCN(C(=O)c3ccco3)CC1)oc1ccccc12`, 420 nM; as for `CCNc1cc(C(=O)N[C@@H](Cc2ccccc2)[C@H](O)CNC2(Cc3cccc(Cl)c3)CCC2)cc(N2CCCCS2(=O)=O)c1`, 1180 nM.

As to `CCc1nc(N)nc(N)c1-c1ccc(F)cc1`, the half-maximal inhibitory concentration (IC50) is 410 nM.

`CN1CCN(CC(=O)Nc2cccc(-c3cccc(-c4nc5ccccc5[nH]4)c3)c2)CC1`: the half-inhibitory concentration (IC50) was 1290 nM. In the case of `COc1ccc2nccc([C@@H](O)CN3CCC(NCCNc4ccccn4)CC3)c2c1` it was 740 nM. In the case of `CCC(C)NC(=O)CN1CN(c2ccccc2)C2(CCN(C(=O)c3ccc(-c4ccccc4)cc3)CC2)C1=O` (configuration not stated) it was 130 nM. As for `Oc1ccc(Cl)cc1CN1CCC(CCOC(c2ccccc2)c2ccc(Cl)cc2)CC1` (configuration not stated), the figure is 390 nM.

As for `O=c1cc(NCCCNCc2ccc(C(F)(F)F)c(F)c2)[nH]c2ccccc12`, the IC50 was 1190 nM. As for `CN(C)CCCNCc1cn(S(=O)(=O)c2ccccc2Cl)c2ccccc12`, the figure is 1070 nM. `Cc1cc2ncn(-c3nccc(NCc4ccc(F)c(C)c4)n3)c2cc1C` returned a 50% inhibitory concentration (IC50) of 990 nM. Turning to `COc1ccc(-c2ccc(NC(=O)c3cccc(C#N)c3)cc2)cc1CN1CCC(O)CC1`, the IC50 came to 820 nM. In the case of `Cc1cc(-c2cccc(CNCCc3ccc(Cl)cc3)c2)cnc1N` it was 1100 nM; in that of `COc1ccc(NC(=O)/C=C/c2ccccc2Cl)cc1OCCN1CCC(Cc2cc3ccccc3[nH]2)CC1`, 900 nM; in that of `C[C@H](Cc1ccc(OCCCCCCOc2ccc(C[C@@H](C)NC[C@H](O)c3cccc(Cl)c3)cc2)cc1)NC[C@H](O)c1cccc(Cl)c1`, 300 nM. In the case of `Clc1ccc(Cl)c2[nH]c(CNCCCNc3nc4ccccc4[nH]3)cc12` it was 160 nM. In the case of `COc1cc(F)c2nccc([C@@H](O)CN3CC[C@@H](NC(=O)OCc4ccccc4)[C@@H](F)C3)c2c1` it was 410 nM; in that of `FC(F)(F)c1cccc(-c2cc(NCCCn3ccnc3)nc(-c3ccncc3)n2)c1`, 110 nM. `COc1ccc(C(=O)Nc2ccc(Cl)cc2C(=O)Nc2ccncc2)cc1` displayed an IC50 of 820 nM. As for `COc1cc(C(=O)N2CC[C@@H](CCN3CCC4(CC3)CN(S(C)(=O)=O)c3ccccc34)C[C@H]2Cc2ccc(Cl)c(Cl)c2)cc(OC)c1OC`, the figure is 840 nM; as for `CC1(C)N=C(N)N=C(N)N1OCCCOc1ccc(N)cc1`, 10 nM; as for `CCc1ccccc1NC(=O)CN1CCN(c2ncnc3scc(-c4ccc(F)cc4)c23)CC1`, 700 nM. `CCOc1cc(C(=O)Nc2ccc3nc(N4CCCCC4)cc(C)c3c2)cc(OCC)c1OCC` returned an IC50 of 820 nM. As for `Cc1ccc2nc(NC#N)[nH]c2c1`, the figure is 1150 nM; as for `Ic1cc(CNC2CCCCC2)ccc1OCc1cccc(COc2ccc(CNC3CCCCC3)cc2I)c1`, 830 nM; as for `COc1cc(CNC[C@@H](O)[C@H](Cc2ccccc2)NC(=O)c2cc(C3CCCC3)cc(N3CCCS3(=O)=O)c2)cc(OC)c1`, 1240 nM.

Molecule `CN(C)CCCOc1ccc(CN2CC[C@H](NC(=O)c3ccc(Cl)c(Cl)c3)C2)c2ccccc12` came in with an IC50 of 880 nM. As for `CCC(C)NCCC(c1ccccc1)c1ccccc1O` (configuration not stated), the figure is 790 nM; as for `COc1cc2c(OC)cccc2cc1CNCCCCCCNCc1cc2cccc(OC)c2cc1OC`, 820 nM; as for `CSC1=NC2(CC(c3cccc(C)c3)c3cc(Cl)c(O)cc3O2)CC(C)(C)N1` (configuration not stated), 880 nM. In the case of `O=C(Nc1cccc(CN2CCCN(Cc3cccnc3)CC2)c1)c1cc2ccccc2s1` it was 1470 nM; in that of `COc1ccc(C2CC(=O)C3=C(C2)NC(C)=C(C(=O)OC2CCCC2)C3c2ccc(O)cc2)cc1OC` (configuration not stated), 570 nM; in that of `CC1(C)N=C(N)N=C(N)N1OCCOc1ccc(Cc2ccccc2)cc1`, 40 nM. As for `COc1ccc(S(=O)(=O)Nc2cc(C)cc(Br)c2OC)cc1N1CCN(C(=O)C(Cl)(Cl)Cl)CC1`, the figure is 870 nM; as for `CN1CCN(CCCNCc2cccc(-c3ccc(CNCCc4ccccc4)cc3)c2)CC1`, 780 nM; as for `COc1cc2cc(C(=O)Nc3ccccc3)c(N)nc2cc1OC`, 1130 nM. In turn, `COCCN1CCN(Cc2cccc(-c3ccc(-c4nc5ccccc5[nH]4)cc3)c2)CC1` displayed an IC50 of 760 nM. As for `CC(C)(C)c1ccc(CN2CCC(CNC(=O)c3cc(-c4cccc(Cl)c4)cs3)C2)cc1` (configuration not stated), the figure is 1160 nM; as for `CCCCNc1c(C(=O)OCC)c(C)nc2c1[nH]c1ccccc12`, 680 nM; as for `CCCN1CCN(Cc2ccc(C(=O)Nc3ccc(Cl)cc3)cc2)CC1`, 50 nM. `Cc1nc(-c2cccc3c(NC(=O)N4CCc5cc6nccc(N7CCN(C)CC7)c6cc54)cccc23)no1` displayed a half-maximal inhibitory concentration (IC50) of 760 nM. On to `COc1nc2c(CCN3CC[C@H](NCc4ccc5c(c4)NC(=O)CO5)[C@H](O)C3)c(Cl)cnc2cc1F`, for which the IC50 stood at 1020 nM. On to `COc1cc(C)ccc1S(=O)(=O)N1CCCCC(c2ccc(C(F)(F)F)cc2)=N1`, for which the half-maximal inhibitory concentration (IC50) is 770 nM. In the case of `COc1ccc(CN2CCC(CNC(C)c3cccc4ccccc34)CC2)cc1` (configuration not stated) it was 180 nM. As for `O=C(c1ccccc1[N+](=O)[O-])N(Cc1ccccc1)c1ccccn1`, the 50% inhibitory concentration (IC50) was 190 nM. Take `Cc1nc2ccc3ccc(CNc4ccc(C(=O)CC(CCC(=O)O)C(=O)O)cc4)cc3c2c(=O)[nH]1` (configuration not stated): the concentration for half-maximal inhibition (IC50) was 40 nM.

Turning to `CN(c1cc(NC(=O)c2cccs2)ccn1)C1CCN(Cc2ccccc2)CC1`, the half-maximal inhibitory concentration (IC50) came out at 1020 nM. In the case of `Cc1cc2[nH]c(-c3ccc(C(=O)NCCCN4CCN(c5cccc(Cl)c5)CC4)s3)nc2cc1Cl` it was 650 nM; in that of `CCOc1ccc(-c2nonc2NC(=O)CC(C)C)cc1OCC`, 980 nM; in that of `COc1ccc(-c2ccc(NC(=O)c3cccc(Cl)c3)cc2)cc1CNC(C)C`, 470 nM. As for `O=C(NCCCCN1CCN(c2cccc3c2CCCC3)CC1)c1ccc(NC(=O)c2ccc(Cl)cc2)cc1`, the figure is 450 nM. As for `CCN(CC)CCCC(C)Nc1cc(C=Cc2ccccc2Cl)nc2cc(Cl)ccc12` (configuration not stated), the figure is 800 nM; as for `OC(CNc1ccnc(Nc2ccc(Cl)cc2)n1)c1ccc(C(F)(F)F)cc1` (configuration not stated), 770 nM. In turn, `c1cc(CN2CCCCC2)cc(-c2ccc(-c3nc4ccccc4[nH]3)s2)c1` displayed an IC50 of 870 nM. As for `Cc1noc(C)c1-c1cccc(CNCc2cccc(-c3cccc(-c4nc5ccc(F)cc5[nH]4)c3)c2)c1`, the figure is 180 nM; as for `CCNc1cc(C(=O)N[C@@H](Cc2ccccc2)[C@H](O)CNCc2cccc(-c3cncnc3)c2)cc(N2CCCC2=O)c1`, 660 nM; as for `NC(N)=Nc1nc(-c2cccc(NC(=O)NCc3cccc4ccccc34)c2)cs1`, 840 nM.
